How the values were obtained:
blackgrass = assay: Test A postemergence; format: in vivo, Alopecurus myosuroides
Outline: (§1)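 Injury readout: eye-scored versus untreated controls, 0 to 100. Exposure period: ~10 days, greenhouse. Application: soil-directed spray over sown seed (pre) or spray on seedlings 2–10 cm tall with one or two leaves (post), compound carried in non-phytotoxic solvent including surfactant.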

common ragweed = assay: Test A postemergence; format: in vivo, Ambrosia elation
Outline: as §1

kochia = assay: Test A postemergence; format: in vivo, Kochia scoparia
Outline: as §1

green foxtail = assay: Test F preemergence; format: in vivo, Setaria viridis
Excerpt: (§2) Seeds of plant species selected from corn (Zea mays), soybean (Glycine max), velvetleaf (Abutilon theophrasti), lambsquarters (Chenopodium album), wild poinsettia (Euphorbia heterophylla), pigweed, palmer (palmer pigweed, Amaranthus palmeri), common waterhemp (Amaranthus rudis), surinam grass (Brachiaria decumbens), large crabgrass (Digitaria sanguinalis), crabgrass, Brazil (Brazilian crabgrass, Digitaria horizontalis), fall panicum (Panicum dichotomiflorum), giant foxtail (Setaria faberii), green foxtail (Setaria viridis), goosegrass (Eleusine indica), johnsongrass (Sorghum halepense), common ragweed (Ambrosia elation), barnyardgrass (Echinochloa crus-galli), southern sandbur (Cenchrus echinatus), arrowleaf sida (Sida rhombifolia), Italian ryegrass (Lolium multiflorum), dayflower, VA (Virginia (VA) dayflower, Commelina virginica), field bindweed (Convolvulus arvensis), cocklebur (common cocklebur, Xanthium strumarium), morningglory (Ipomoea coccinea), nightshade (eastern black nightshade, Solanum ptycanthum), kochia (Kochia scoparia), yellow nutsedge (Cyperus esculentus), and hairy beggarticks (Bidens pilosa), were planted into a silt loam soil and treated preemergence with test chemicals formulated in a non-phytotoxic solvent mixture which included a surfactant.
(§3) At the same time, plants from these crop and weed species and also horseweed (Canada horseweed, Conyza canadensis), smartweed (ladysthumb smartweed, Polygonum persicaria), waterhemp_RES1, (ALS & Triazine resistant common waterhemp, Amaranthus rudis), and waterhemp_RES2, (ALS & HPPD resistant common waterhemp, Amaranthus rudis) were treated with postemergence applications of test chemicals formulated in the same manner. Plants ranged in height from 2 to 18 cm for postemergence treatments (1- to 4-leaf stage). Treated plants and controls were maintained in a greenhouse for 14 to 21 days, after which time all species were compared to controls and visually evaluated. Plant response ratings, summarized in Table F, are based on a scale of 0 to 100 where 0 is no effect and 100 is complete control. A dash (-) response means no test result.

wild poinsettia = assay: Test F preemergence; format: in vivo, Euphorbia heterophylla
Excerpt: as §2, §3

[1] = Postemergence, 500 g ai/ha, 0 to 100 scale (0 no effect, 100 complete control)
[2] = postemergence, 125 g ai/ha, about 10 days, visual rating on 0 to 100 scale (0 no effect, 100 complete control)
[3] = Preemergence, 62 g ai/ha, scale 0 to 100
[4] = Preemergence, 125 g ai/ha, scale 0 to 100
[5] = Preemergence, 250 g ai/ha, scale 0 to 100
[6] = preemergence, 16 g ai/ha, scale 0 to 100, 100 is complete control

SMILES	Blackgrass plant response rating (blackgrass; [1])	Blackgrass plant response rating (blackgrass; [2])	Common Ragweed plant response rating (common ragweed; [1])	Common Ragweed plant response rating (common ragweed; [2])	Kochia plant response rating (kochia; [1])	Kochia plant response rating (kochia; [2])	Plant response rating, Green Foxtail (green foxtail; [3])	Plant response rating, Green Foxtail (green foxtail; [4])	Plant response rating, Green Foxtail (green foxtail; [5])	Plant response rating, Green Foxtail (green foxtail; [6])	Plant response rating, Wild Poinsettia (wild poinsettia; [3])	Plant response rating, Wild Poinsettia (wild poinsettia; [4])	Plant response rating, Wild Poinsettia (wild poinsettia; [5])	Plant response rating, Wild Poinsettia (wild poinsettia; [6])	Kochia plant response rating (kochia; Postemergence, 125 g ai/ha, 0 to 100 scale, 0 no effect, 100 complete control)
CCc1cc(C(=O)NOC(C)C)nn1Cc1ccnc(OC(F)F)c1 [Compound 126]	90	90	80	80	100	100	–	–	–	–	–	–	–	–	–
CCCc1cc(C(=O)NCC(F)(F)F)nn1Cc1ccnc(OC(F)F)c1 [Compound 127]	90	90	80	30	100	90	–	–	–	–	–	–	–	–	–
CCOc1cc(C(=O)NCC(F)(F)F)nn1Cc1ccnc(OC(F)F)c1 [Compound 128]	100	90	70	30	90	90	–	–	–	–	–	–	–	–	–
CCCNC(=O)c1cc(OCC)n(Cc2ccnc(OC(F)F)c2)n1 [Compound 136]	100	80	100	30	90	90	–	–	–	–	–	–	–	–	–
CCCc1cc(C(=O)NC(C)C)nn1Cc1cc(C(F)(F)F)nn1C [Compound 201]	–	–	–	–	–	–	40	75	80	0	5	25	65	0	–
CCCc1cc(C(=O)NC2CC2)nn1Cc1ccnc(OC(F)F)c1 [Compound 205]	90	70	90	80	90	–	–	–	–	–	–	–	–	–	90
CCc1cc(C(=O)NCC(F)(F)F)nn1Cc1ccnc(Br)c1 [Compound 224]	–	–	–	–	–	–	35	70	95	–	60	65	85	–	–

From patent US20150105252A1, “SUBSTITUTED PYRAZOLES AS HERBICIDES” (E I DU PONT DE NEMOURS AND COMPANY, priority 2013, published 2015)
